The results in this text go back to patent US12336982B2 (RODEO THERAPEUTICS CORPORATION, priority 2018, dated 2025).

Structures are written as SMILES.

The test addresses T1, recombinant 15-PGDH (Homo sapiens, UniProt P15428).
T1 sequence (P15428 1-266): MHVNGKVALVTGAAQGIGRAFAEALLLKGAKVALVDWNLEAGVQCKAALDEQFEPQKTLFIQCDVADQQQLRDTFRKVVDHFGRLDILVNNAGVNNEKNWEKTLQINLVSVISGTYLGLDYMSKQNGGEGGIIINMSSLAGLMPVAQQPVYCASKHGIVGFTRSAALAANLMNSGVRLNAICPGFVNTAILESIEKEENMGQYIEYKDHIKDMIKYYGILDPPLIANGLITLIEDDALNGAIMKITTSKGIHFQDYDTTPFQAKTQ
It counts as biochemical. The conditions noted are these: recombinant human 15-PGDH, in vitro; read-out: PDGH Assay-IC50.

Text: The Recombinant 15-PGDH is human unless otherwise specified.

Usually IC50 stands for the point on the concentration scale where inhibition reaches its midpoint. `Nc1c([S+]([O-])C2CCC2)sc2nc(-c3cncnc3)cc(-c3cccnc3)c12` (centres unmarked) [Example 84]: the IC50 was under 2.5 nM. With `COCCC[S+]([O-])c1sc2nc(-c3cncnc3)cc(-c3cccnn3)c2c1N` (centres unmarked) [Example 236] the figure was under 2.5 nM; with `COCC[S+]([O-])c1sc2nc(-c3ccc(=O)[nH]c3)cc(-c3ccccc3)c2c1N` (centres unmarked) [Example 167], under 2.5 nM; with `Nc1c([S+]([O-])C2CCC2)sc2nc(-c3cnc(CO)nc3)cc(-c3ccccc3)c12` (centres unmarked) [Example 221], under 2.5 nM. Then `COCC[S+]([O-])c1sc2nc(-c3cnc(N)nc3)cc(C3CC3)c2c1N` (centres unmarked) [Example 110], with under 2.5 nM. Then `COCCC[S@@+]([O-])c1sc2nc(-c3cnc(N)nc3)cc(C3CC3)c2c1N` [Example 146], with under 2.5 nM; and `COCC[S+]([O-])c1sc2nc(-c3cncnc3)cc(C3CCC3)c2c1N` (centres unmarked) [Example 251], with under 2.5 nM; and `COCC[S+]([O-])c1sc2nc(-c3cnc4c(cnn4C)c3)cc(-c3ccccc3)c2c1N` (centres unmarked) [Example 120], with under 2.5 nM. As to `COCCC[S+]([O-])c1sc2nc(-c3ccc(NC(=O)OC)nc3)cc(-c3cccnc3)c2c1N` (centres unmarked) [Example 105], the half-inhibitory concentration (IC50) is 2.5 to 10 nM.

On to `Nc1ncc(-c2cc(-c3ncccc3F)c3c(N)c([S+]([O-])C4CCC4)sc3n2)cn1` (centres unmarked) [Example 76], for which the concentration for half-maximal inhibition (IC50) is under 2.5 nM. `COCCC[S+]([O-])c1sc2nc(-c3ccc(N)nc3)cc(C(F)(F)F)c2c1N` (centres unmarked) [Example 134]: the IC50 is 2.5 to 10 nM.

In the case of `COCCC[S+]([O-])c1sc2nc(-c3cnc(O)nc3)cc(-c3ccccc3)c2c1N` (centres unmarked) [Example 166], the IC50 lay in the range of 2.5 to 10 nM. With `Nc1c([S+]([O-])C2CCC2)sc2nc(-c3cnc(NCCO)nc3)cc(-c3ccccc3)c12` (centres unmarked) [Example 44] the figure was under 2.5 nM. Then `Nc1c([S+]([O-])C2CCC2)sc2nc(-c3cncnc3)cc(-c3ccn(C4CC4)n3)c12` (centres unmarked) [Example 414], with under 2.5 nM; and `Cn1cc(-c2cc(-c3ccc(OCCO)cc3)c3c(N)c([S+]([O-])C4CCC4)sc3n2)cn1` (centres unmarked) [Example 412], with under 2.5 nM; and `COCC[S+]([O-])c1sc2nc(-c3cnn(C)c(=O)c3)cc(-c3ccccc3)c2c1N` (centres unmarked) [Example 397], with under 2.5 nM.

`COCC[S+]([O-])c1sc2nc(-c3cnc4c(c3)CNC4=O)cc(-c3ccccc3)c2c1N` (centres unmarked) [Example 241]: the 50% inhibitory concentration (IC50) was under 2.5 nM. Then `COCCC[S+]([O-])c1sc2nc(-c3cnc4c(c3)CNC4=O)cc(-c3ccccc3)c2c1N` (centres unmarked) [Example 303], with under 2.5 nM. With `COCCC[S@@+]([O-])c1sc2nc(-c3cccnc3)cc(C(F)(F)F)c2c1N` [Example 78] the figure was under 2.5 nM; with `Cc1cc(-c2cc(-c3cnc(N)nc3)nc3sc([S+]([O-])C4CCC4)c(N)c23)n(C)n1` (centres unmarked) [Example 355], under 2.5 nM; with `COCCC[S@@+]([O-])c1sc2nc(-c3cncnc3)cc(-c3cnccn3)c2c1N` [Example 234], at least 10 nM.

For `COCCC[S+]([O-])c1sc2nc(-c3cncnc3)cc(-c3ccnc(C)c3)c2c1N` (centres unmarked) [Example 119], the IC50 was under 2.5 nM. Then `Cn1cc(-c2cc(-c3cnc(N)nc3)nc3sc([S+]([O-])C4CCC4)c(N)c23)cn1` (centres unmarked) [Example 169], with under 2.5 nM; and `COCC[S@@+]([O-])c1sc2nc(-c3cnc(NCCO)nc3)cc(C(F)(F)F)c2c1N` [Example 206], with under 2.5 nM.

As for `Nc1c([S+]([O-])C2CCC2)sc2nc(-c3cnc(N(CCO)CCO)nc3)cc(-c3ccccc3)c12` (centres unmarked) [Example 197], the half-maximal inhibitory concentration (IC50) is under 2.5 nM. Then `Nc1c([S+]([O-])C2CCC2)sc2nc(-c3cnc(NCCO)nc3)cc(C3CC3)c12` (centres unmarked) [Example 145], with under 2.5 nM; and `COCC[S@@+]([O-])c1sc2nc(-c3ccnnc3)cc(-c3ccccc3)c2c1N` [Example 211], with under 2.5 nM; and `COCCC[S+]([O-])c1sc2nc(-c3cnc(NCCO)nc3)cc(C(F)(F)F)c2c1N` (centres unmarked) [Example 139], with 2.5 to 10 nM.

For `CS(=O)(=O)Nc1ncc(-c2cc(-c3cccnc3)c3c(N)c([S+]([O-])C4CCC4)sc3n2)cn1` (centres unmarked) [Example 93], the IC50 is under 2.5 nM.

Turning to `COCC[S@@+]([O-])c1sc2nc(-c3cncnc3)cc(-c3ncccn3)c2c1N` [Example 230], the IC50 was under 2.5 nM. Then `Nc1c([S@+]([O-])C2CCC2)sc2nc(-c3cncnc3)cc(-c3ccnn3C3CC3)c12` [Example 215], with under 2.5 nM; and `Cn1nccc1-c1cc(-c2cnc3c(c2)nnn3C)nc2sc([S@+]([O-])C3CCC3)c(N)c12` [Example 326], with under 2.5 nM; and `CN(CCO)c1ncc(-c2cc(-c3ccccc3)c3c(N)c([S+]([O-])C4CCC4)sc3n2)cn1` (centres unmarked) [Example 144], with under 2.5 nM.

With `COCC[S@@+]([O-])c1sc2nc(-c3cncnc3)cc(C(F)(F)F)c2c1N` [Example 198], the concentration for half-maximal inhibition (IC50) was under 2.5 nM.

Turning to `COCC[S@+]([O-])c1sc2nc(-c3cnc4c(c3)CNC4=O)cc(-c3ccccc3)c2c1N` [Example 243], the concentration for half-maximal inhibition (IC50) is at least 10 nM. For the compound `COCC[S+]([O-])c1sc2nc(-c3ccc(NC(C)=O)nc3)cc(-c3ccnn3C)c2c1N` (centres unmarked) [Example 393], the IC50 lay in the range of 2.5 to 10 nM. With `CC(C)(C)[S+]([O-])c1sc2nc(-c3cnc(NCCO)nc3)cc(C3CCC3)c2c1N` (centres unmarked) [Example 353] the figure was 2.5 to 10 nM. Then `COCC[S+]([O-])c1sc2nc(-c3cnc(N)nc3)cc(C(F)(F)F)c2c1N` (centres unmarked) [Example 132], with under 2.5 nM. With `Nc1c([S+]([O-])C2CCC2)sc2nc(-c3cnc(N4CC(O)C4)nc3)cc(C3CC3)c12` (centres unmarked) [Example 250] the figure was under 2.5 nM; with `COCC[S@+]([O-])c1sc2nc(-c3cncnc3)cc(C3CCC3)c2c1N` [Example 253], at least 10 nM. For the compound `COCC[S+]([O-])c1sc2nc(-c3cnc4nnn(C)c4c3)cc(C3CCC3)c2c1N` (centres unmarked) [Example 368], the IC50 was under 2.5 nM. With `Cn1nccc1-c1cc(-c2cnc3nnn(C)c3c2)nc2sc([S+]([O-])C3CCC3)c(N)c12` (centres unmarked) [Example 369] the figure was under 2.5 nM; with `COCCn1ccc(-c2cc(-c3cnc4nn(C)cc4c3)nc3sc([S@@+]([O-])CCOC)c(N)c23)n1` [Example 388], at least 10 nM. Then `COCC[S@+]([O-])c1sc2nc(-c3cnn(C)c3)cc(C3CC3)c2c1N` [Example 276], with at least 10 nM; and `Nc1c([S+]([O-])C2CCC2)sc2nc(-c3cnc(NCCO)nc3)cc(-c3cccc(F)c3)c12` (centres unmarked) [Example 157], with under 2.5 nM. For `COCC[S+]([O-])c1sc2nc(-c3cnc4c(cnn4C)c3)cc(C3CC3)c2c1N` (centres unmarked) [Example 226], the IC50 is under 2.5 nM. With `Nc1ncc(-c2cc(C(F)(F)F)c3c(N)c([S+]([O-])C4CCC4)sc3n2)cn1` (centres unmarked) [Example 429] the figure was 2.5 to 10 nM. In the case of `COCC[S@+]([O-])c1sc2nc(-c3cnc(N)nc3)cc(-c3ccccc3)c2c1N` [Example 88], the concentration for half-maximal inhibition (IC50) is at least 10 nM.

Take `Nc1c([S@@+]([O-])C2CCC2)sc2nc(-c3ccc(NCCO)nc3)cc(-c3ccccn3)c12` [Example 96]: the IC50 was under 2.5 nM. Then `COCCC[S+]([O-])c1sc2nc(-c3cnc4c(cnn4C)c3)cc(C3CC3)c2c1N` (centres unmarked) [Example 172], with 2.5 to 10 nM; and `COCCC[S@@+]([O-])c1sc2nc(-c3cncnc3)cc(-c3ccnc(C)c3)c2c1N` [Example 170], with under 2.5 nM. With `Cn1nccc1-c1cc(-c2cnn3ccnc3c2)nc2sc([S+]([O-])C3CCC3)c(N)c12` (centres unmarked) [Example 319] the figure was under 2.5 nM. With `COCC[S@@+]([O-])c1sc2nc(-c3cnc(N)nc3)cc(C3CCC3)c2c1N` [Example 346], the IC50 is under 2.5 nM.

Consider `Cn1cc2cc(-c3cc(C(F)(F)F)c4c(N)c([S@+]([O-])C5CCC5)sc4n3)cnc2n1` [Example 423], for which the IC50 is under 2.5 nM.

As to `Nc1c([S+]([O-])C2CCC2)sc2nc(-c3ccc(NCCO)nc3)cc(-c3ccccn3)c12` (centres unmarked) [Example 83], the concentration for half-maximal inhibition (IC50) was under 2.5 nM. With `Cn1cnc2ncc(-c3cc(C4CC4)c4c(N)c([S+]([O-])C5CCC5)sc4n3)cc21` (centres unmarked) [Example 407] the figure was under 2.5 nM; with `Cn1cc2cc(-c3cc(C4CC4)c4c(N)c([S+]([O-])C5CCC5)sc4n3)cnc2n1` (centres unmarked) [Example 286], under 2.5 nM; with `Cn1ccc(-c2cc(-c3cnc(N)nc3)nc3sc([S+]([O-])C4CCC4)c(N)c23)n1` (centres unmarked) [Example 338], under 2.5 nM.

As for `Nc1c([S+]([O-])C2CCC2)sc2nc(-c3cnc(NCCO)nc3)cc(-c3cccc(Cl)c3)c12` (centres unmarked) [Example 192], the IC50 is under 2.5 nM. As to `COCCC[S+]([O-])c1sc2nc(-c3cnn(C)c3)cc(C(F)(F)F)c2c1N` (centres unmarked) [Example 427], the half-maximal inhibitory concentration (IC50) is under 2.5 nM. With `COCC[S@+]([O-])c1sc2nc(-c3cnc4nncn4c3)cc(-c3ccccc3)c2c1N` [Example 360] the figure was at least 10 nM. Then `Nc1c([S+]([O-])C2CCC2)sc2nc(-c3cnc(NCCO)nc3)cc(-c3ccon3)c12` (centres unmarked) [Example 351], with under 2.5 nM; and `COCCC[S@@+]([O-])c1sc2nc(-c3cnc(NCCO)nc3)cc(C(F)(F)F)c2c1N` [Example 207], with under 2.5 nM. With `Nc1c([S+]([O-])C2CCC2)sc2nc(-c3cnc(NCCO)nc3)cc(-c3ccccn3)c12` (centres unmarked) [Example 82] the figure was under 2.5 nM; with `COCC[S+]([O-])c1sc2nc(-c3cncnc3)cc(-c3ncccn3)c2c1N` (centres unmarked) [Example 229], under 2.5 nM. On to `Nc1c([S+]([O-])C2CCC2)sc2nc(-c3ccc(NCCO)nc3)cc(-c3ccccc3)c12` (centres unmarked) [Example 63], for which the IC50 was under 2.5 nM.

For `Nc1c([S@+]([O-])C2CCC2)sc2nc(-c3cncnc3)cc(-c3ccon3)c12` [Example 309], the half-inhibitory concentration (IC50) is under 2.5 nM.

`COCCC[S@+]([O-])c1sc2nc(-c3cncnc3)cc(-c3ncccn3)c2c1N` [Example 112]: the 50% inhibitory concentration (IC50) was at least 10 nM.
